Test results reported in patent US3984470A, “Amidoxime derivatives and process for preparing the same” (priority 1974, dated 1976).

Legend:
[1] = system: stereotypies induced by amphetamine; test: Potentiation of the stereotypies induced by amphetamine; type: in vivo, rats
Description: It is commonly admitted that amphetamine induces stereotypies by stimulating the dopaminergic receptors and inhibiting the re-uptake of dopamine into the neuron.
The thymoanaleptics potentiate these stereotypies.
Thirty minutes later, a dose of 10 mg/kg of the compound to be tested was given by oral route. Note was taken of the intensity of the stereotypies every 30 minutes for 150 minutes in accordance with the following scale which indicates the behaviour of the animal.
0 : the rat is motionless and asleep
1 : the rat is motionless and awake
3 : the rat stands on its hind paws and sniffs the lid of its cage in a stereotyped manner.
4 : the rat licks the walls of its cage in a stereotyped manner
5 : the rat bites the bars of its cage or sniffs the shavings of its litter in a stereotyped manner
6 : the rat chews the shavings in a stereotyped manner
The average of the 5 results obtained for each batch was calculated and compared with the average obtained with the control animals.
The difference between these averages represents the mean increase of the steroetypies of the treated animals in comparison with the controls.

reserpine-induced ptosis = test: Reserpine-induced ptosis in the rat; type: in vivo, male rats of the CF1 strain; details: reserpine 5 mg/kg i.p., score scale 0-4, mean to 6th hour vs controls
Description: (§1) The thymoanaleptic properties of the compounds of the invention were determined by means of reserpine-induced ptosis and hypothermia in the rat.
An intraperitoneal dose of 5 mg/kg of reserpine was administered to batches of 5 male rats of the CF1 strain weighing an average of 300 g.
Thirty minutes later a dose of the compound to be studied was given by oral route and the inhibitory effect of the reserpine was noted every hour up to the sixth hour. Ptosis was evaluated for each eye in accordance with the following scale:
4 : eyelids completely closed.
The difference between these two averages represents the average decrease of the ptosis in the treated animals as compared to the controls.

toxicity of yohimbine = test: Potentiation of the toxicity of yohimbine (test of QUINTON); type: in vivo, male mice; details: yohimbine hydrochloride 25 mg/kg i.p.; for mortality at 50 mg/kg: Mus musculus, 50 mg/kg oral, mortality after 24 hours
Description: Yohimbine is a substance which provokes an increase in the serotonine level in the brain or a decrease in norepinephrine according to the author.
For this purpose, the test of QUINTON was used which is described in Brit. J. Pharmacol. 21, 51 (1963). […] […] The percentage of mortality was noted after 24 hours.
Table III hereunder expresses the percentage of potentiation of the toxicity due to yohimbine in comparison with the controls.
The percentage in question was determined 24 hours after the administration of yohimbine.

[2] = system: aggressivity of killer rats; test: Aggressivity of killer rats; type: in vivo, male rats; details: for inhibition in vivo at 25 mg/kg: 25 mg/kg i.p.; for antiaggressive properties: conclusion from Table V; for inhibition in vivo at 20 mg/kg: 20 mg/kg i.p.
Excerpt: If, under certain conditions, male rats are kept alone in individual cages for several weeks, the become spontaneously aggressive towards any mouse, which they kill as soon as it is placed in the same cage. Mice were introduced one after another into cages containing an isolated rat and a selection was made of the rats which immediately killed three mice. In this way batches of 6 to 8 rats were constituted. The rats were then given the compound to be studied by intraperitoneal route in such a way that each batch received a higher dose than the preceding batch. […] Table V which follows contains the results obtained 30 minutes after administration of the compound to be studied.

[3] = system: reserpine-induced hypothermia; test: Reserpine-induced hypothermia in the rat; type: in vivo, male rats CF1; details: reserpine 5 mg/kg i.p., mean to 6th hour vs controls
Description: as §1
An intraperitoneal dose of 5 mg/kg of reserpine was administered to batches of 5 male rats CF1 weighing an average of 300 g. Thirty minutes later, the rectal temperature was determined and then a dose of the compound to be tested was given by oral route, except to the control animals. The rectal temperature of all the animals including the controls was taken every hour up to the 6th hour.
The difference between these two averages enabled an estimation to be made regarding the antagonistic effect of the compounds of the invention on the hypothermia induced by reserpine.

[4] = system: cholinergic effects provoked by tremorine; test: Cholinolytic properties: action with respect to tremorine; type: in vivo, male mice of the OF1 strain; details: tremorine 10 mg/kg, difference vs controls
Description: When injected into mice, tremorine and its metabolite, oxotremorine, produce central cholinergic effects, i.e. normal and provoked tremor as well as peripheral cholinergic effects i.e. weeping, sweating diarrhoea and salivation.
Male mice of the OF1 strain weighing 22 g, were divided into batches of 10. Each batch with the exception of the control animals, received, by oral route, a dose of the compound to be tested.
Thirty minutes later, 10 mg/kg of tremorine were administered to all the batches and thirty minutes after the injection of tremorine note was taken of the cholinergic effects on each animal in accordance with the following scale: […]

[5] = Rattus norvegicus, ip, 0.5 h, 30 minutes after administration
[6] = 10 mg/kg oral, amphetamine 10 mg/kg i.p., every 30 min for 150 min
[7] = 20 mg/kg, same conditions (amphetamine 10 mg/kg i.p.)

Which “Mean increase of the stereotypies” value ([1]; 20 mg/kg oral, 5 mg/kg of amphetamine) does the source give for `NC(COc1cccc2sccc12)=NO` [Compound 26, 2-(4-Benzothienyloxy)-acetamidoxime] here?
Its value is 6.8.

And the “Average decrease of Ptosis” value (reserpine-induced ptosis; 20 mg/kg oral)?
The value was 1.4.

And the “Potentiation of the toxicity of yohimbine” value (toxicity of yohimbine; 20 mg/kg oral, 24 hours)?
The value was 50%.

And the inhibition in vivo at 25 mg/kg [2, 5]?
The inhibition in vivo at 25 mg/kg was 27%.

With `NC(COc1cccc2ccoc12)=NO` [Compound 7, 2-(7-Benzofuryloxy)-acetamidoxime] as the compound, how does the “Average inhibition of hypothermia (positive °C)” value (“Average inhibition” below) ([3]; 10 mg/kg oral) read?
The value was 0.6 °C.

And the “Average increase of the stereotypies” value [1, 6]?
Its value is 4.8.

And the “Average decrease of Ptosis” value (reserpine-induced ptosis; 10 mg/kg oral)?
The value was 1.4.

And the mortality at 50 mg/kg (toxicity of yohimbine)?
Its mortality at 50 mg/kg is 60%.

Which “Central response tremor: Normal” value ([4]; 10 mg/kg oral) does the source give for `Cc1oc2ccccc2c1OC(C)(C)C(N)=NO` [Compound 22, 2-(2-Methyl-3-benzofuryloxy)-2-methyl-propionamidoxime] here?
The value was 0.

And the “Central response tremor: Provoked” value ([4]; 10 mg/kg oral)?
The value was 0.

What about the “Peripheral cholinergic response: Salivat.” value ([4]; 10 mg/kg oral) of the same compound?
The value was 0.

And the “Peripheral cholinergic response: Sweating” value ([4]; 10 mg/kg oral)?
The value was 0.

What about the “Peripheral cholinergic response: Weeping” value ([4]; 10 mg/kg oral) of the same compound?
The value was 0.

What about the “Average inhibition” value ([3]; 10 mg/kg oral) of the same compound?
The value was 0.5 °C.

What about the “Average increase of the stereotypies” value [1, 6] of the same compound?
The value was 4.2.

What about the “Average decrease of Ptosis” value (reserpine-induced ptosis; 10 mg/kg oral) of the same compound?
The value was 0.3.

Which “Average inhibition” value ([3]; 10 mg/kg oral) does the source give for `NC(COc1ccc2occc2c1)=NO` [Compound 5, 2-(5-Benzofuryloxy)-acetamidoxime] here?
Its value is 0.5 °C.

And the “Average decrease of Ptosis” value (reserpine-induced ptosis; 10 mg/kg oral)?
The value was 1.9.

And the mortality at 50 mg/kg (toxicity of yohimbine)?
The mortality at 50 mg/kg was 10%.

And the inhibition in vivo at 25 mg/kg [2, 5]?
The inhibition in vivo at 25 mg/kg was 60%.

Which “Average inhibition” value ([3]; 10 mg/kg oral) does the source give for `CCC(Oc1cccc2ccccc12)C(N)=NO` (stereo not drawn) [Compound 34] here?
The value was 1.1 °C.

And the mortality at 50 mg/kg (toxicity of yohimbine)?
The mortality at 50 mg/kg was 10%.

And the inhibition in vivo at 1 mg/kg ([2]; Rattus norvegicus, ip, 0.5 h, 1 mg/kg i.p., 30 minutes after administration)?
The inhibition in vivo at 1 mg/kg was 100%.

What about the antiaggressive properties [2] of the same compound?
The antiaggressive properties was “powerful antiaggressive properties”.

For `CCC(Oc1ccc2ccccc2c1)C(N)=NO` (stereo not drawn) [Compound 37, 2-(2-Naphthyloxy)-butyramidoxime], which “Average inhibition” value ([3]; 10 mg/kg oral) is on record?
Its value is 0.5 °C.

And the “Average increase of the stereotypies” value [1, 6]?
Its value is 1.8.

Which “Average inhibition” value ([3]; 10 mg/kg oral) does the source give for `CC(Oc1c(C(C)C)oc2ccccc12)C(N)=NO` (stereo not drawn) [Compound 24, 2-(2-Isopropyl-3-benzofuryloxy)-propionamidoxime] here?
Its value is 0.8 °C.

And the “Average increase of the stereotypies” value [1, 6]?
The value was 3.8.

And the “Average decrease of Ptosis” value (reserpine-induced ptosis; 10 mg/kg oral)?
The value was 0.2.

And the mortality at 50 mg/kg (toxicity of yohimbine)?
The mortality at 50 mg/kg was 30%.

What does the source list for `CCC(Oc1cccc2c1OCCO2)C(N)=NO` (stereo not drawn) [Compound 14, 2-[(1,4-Benzodioxanyl)-5-oxy]-butyramidoxime]?
Average inhibition of hypothermia (positive °C) ([3]; 10 mg/kg oral): 0.4 °C; Average increase of the stereotypies [1, 6]: 4.2; Average decrease of Ptosis (reserpine-induced ptosis; 10 mg/kg oral): 0.6; inhibition in vivo at 25 mg/kg [2, 5]: 80%

For `CC(C)(Oc1cccc2c1OCCO2)C(N)=NO` [Compound 38, 2-[(1,4-Benzodioxanyl)-5-oxyl]-2-methyl-propionamidoxime], which “Average inhibition” value ([3]; 10 mg/kg oral) is on record?
Its value is 0.5 °C.

What about the mortality at 50 mg/kg (toxicity of yohimbine) of the same compound?
The mortality at 50 mg/kg was 10%.

How did the “Average increase of the stereotypies” value [1, 7] turn out when `Cc1cc2cc(OCC(N)=NO)ccc2o1` [Compound 33, 2-(2-Methyl-5-benzofuryloxy)-acetamidoxime] was run?
The value was 4.

What about the “Average decrease of Ptosis” value (reserpine-induced ptosis; 100 mg/kg oral) of the same compound?
Its value is 2.0.

And the inhibition in vivo at 20 mg/kg [2, 5]?
Its inhibition in vivo at 20 mg/kg is 60%.

What does the source list for `NC(CCOc1ccc2ccccc2c1)=NO` [Compound 18, 3-(2-Naphthyloxy)-propionamidoxime]?
Average decrease of Ptosis (reserpine-induced ptosis; 10 mg/kg oral): 0.4; mortality at 50 mg/kg (toxicity of yohimbine): 10%; inhibition in vivo at 25 mg/kg [2, 5]: 100%; antiaggressive properties [2]: powerful antiaggressive properties

How did the “Central response tremor: Normal” value ([4]; 25 mg/kg oral) turn out when `CCc1oc2ccccc2c1OC(C)C(N)=NO` (stereo not drawn) [Compound 17, 2-(2-Ethyl-3-benzofuryloxy)-propionamidoxime] was run?
The value was -0.8.

And the “Central response tremor: Provoked” value ([4]; 25 mg/kg oral)?
The value was 0.

What about the “Peripheral cholinergic response: Salivat.” value ([4]; 25 mg/kg oral) of the same compound?
The value was 0.

What about the “Peripheral cholinergic response: Sweating” value ([4]; 25 mg/kg oral) of the same compound?
Its value is 0.

And the “Peripheral cholinergic response: Weeping” value ([4]; 25 mg/kg oral)?
The value was 0.

What about the “Average increase of the stereotypies” value [1, 6] of the same compound?
Its value is 1.2.

And the “Average decrease of Ptosis” value (reserpine-induced ptosis; 10 mg/kg oral)?
Its value is 0.4.

And the mortality at 50 mg/kg (toxicity of yohimbine)?
Its mortality at 50 mg/kg is 20%.

How did the “Average decrease of Ptosis” value (reserpine-induced ptosis; 10 mg/kg oral) turn out when `Cc1oc2ccccc2c1OCC(N)=NO` [Compound 12, 2-(2-Methyl-3-benzofuryloxy)-acetamidoxime] was run?
Its value is 0.7.

And the inhibition in vivo at 25 mg/kg [2, 5]?
The inhibition in vivo at 25 mg/kg was 27%.

What does the source list for `CC(C)(Oc1cccc2ccoc12)C(N)=NO` [Compound 30, 2-(7-Benzofuryloxy)-2-methyl-propionamidoxime]?
Average inhibition of hypothermia (positive °C) ([3]; 100 mg/kg oral): 1 °C; Average increase of the stereotypies [1, 7]: 6.5; Average decrease of Ptosis (reserpine-induced ptosis; 100 mg/kg oral): 2.3; inhibition in vivo at 20 mg/kg [2, 5]: 75%

What does the source list for `CC(Oc1ccc2ccoc2c1)C(N)=NO` (stereo not drawn) [Compound 28, 2-(6-Benzofuryloxy)-propionamidoxime]?
Average inhibition of hypothermia (positive °C) ([3]; 100 mg/kg oral): 1.1 °C; Average decrease of Ptosis (reserpine-induced ptosis; 100 mg/kg oral): 2.4

Which “Average inhibition” value ([3]; 10 mg/kg oral) does the source give for `CCC(Oc1c(C)oc2ccccc12)C(N)=NO` (stereo not drawn) [Compound 39, 2-(2-Methyl-3-benzofuryloxy)-butyramidoxime] here?
The value was 0.3 °C.

And the mortality at 50 mg/kg (toxicity of yohimbine)?
The mortality at 50 mg/kg was 40%.

What does the source list for `CC(Oc1ccc2occc2c1)C(N)=NO` (stereo not drawn) [Compound 29, 2-(5-Benzofuryloxy)-propionamidoxime]?
Average inhibition of hypothermia (positive °C) ([3]; 100 mg/kg oral): 0.8 °C; Average increase of the stereotypies [1, 7]: 5; Average decrease of Ptosis (reserpine-induced ptosis; 100 mg/kg oral): 2.4

Which results are given for `CC(C)c1oc2ccccc2c1OCC(N)=NO` [Compound 36, 2-(2-Isopropyl-3-benzofuryloxy)-acetamidoxime]?
Average inhibition of hypothermia (positive °C) ([3]; 10 mg/kg oral): 0.7 °C; Average increase of the stereotypies [1, 6]: 1.8

What does the source list for `CCc1oc2ccccc2c1OC(C)(C)C(N)=NO` [Compound 46, 2-(2-Ethyl-3-benzofuryloxy)-2-methyl-propionamidoxime]?
Average increase of the stereotypies [1, 6]: 6.6; mortality at 50 mg/kg (toxicity of yohimbine): 10%; inhibition in vivo at 25 mg/kg [2, 5]: 100%

`CCc1oc2ccccc2c1OCCC(N)=NO` [Compound 13, 3-(2-Ethyl-3-benzofuryloxy)-propionamidoxime] was tested. Which “Central response tremor: Normal” value ([4]; 25 mg/kg oral) did it give?
Its value is 0.

What about the “Central response tremor: Provoked” value ([4]; 25 mg/kg oral) of the same compound?
Its value is 0.

What about the “Peripheral cholinergic response: Salivat.” value ([4]; 25 mg/kg oral) of the same compound?
The value was 0.

What about the “Peripheral cholinergic response: Sweating” value ([4]; 25 mg/kg oral) of the same compound?
The value was 0.

And the “Peripheral cholinergic response: Weeping” value ([4]; 25 mg/kg oral)?
Its value is 0.

And the “Average increase of the stereotypies” value [1, 6]?
Its value is 2.4.

What about the “Average decrease of Ptosis” value (reserpine-induced ptosis; 10 mg/kg oral) of the same compound?
The value was 0.7.

With `NC(CCOc1cccc2ccccc12)=NO` [Compound 6, 3-(1-Naphthyloxy)-propionamidoxime] as the compound, how does the “Average decrease of Ptosis” value (reserpine-induced ptosis; 10 mg/kg oral) read?
The value was 1.5.

What about the mortality at 50 mg/kg (toxicity of yohimbine) of the same compound?
The mortality at 50 mg/kg was 30%.

And the inhibition in vivo at 25 mg/kg [2, 5]?
Its inhibition in vivo at 25 mg/kg is 30%.

What does the source list for `CC(C)c1oc2ccccc2c1OC(C)(C)C(N)=NO` [Compound 35, 2-(2-Isopropyl-3-benzofuryloxy)-2-methyl-propionamidoxime]?
Average inhibition of hypothermia (positive °C) ([3]; 10 mg/kg oral): 0.7 °C; Average increase of the stereotypies [1, 6]: 3
